Source: patent US20230293599A1, “BACTERIAL COMPOSITIONS WITH ANTI-INFLAMMATORY ACTIVITY” (Universiteit Gent, priority 2020, published 2023)
Read-outs that look alike come from different tables or passages of the source. Residues, ends and D or L forms follow the SMILES beside them.

What was measured:
S. aureus = format: cell-based, Staphylococcus aureus
Description: (§1) Using Phenotype Microarray (PM) panels (Biolog), the influence of 190 carbon sources on the growth of the potential probiotic species R. mucilaginosa, R. dentocariosa, R. gilardii, G. haemolysans, and common respiratory pathogens P. aeruginosa, and S. aureus was determined. PM1 and PM2 panels (Biolog) were inoculated according to the manufacturer's instructions. Growth curves were generated for 35 hours by measuring the absorbance at 590 nm using an EnVision (Perkin Elmer) plate reader.

R. dentocariosa = assay: Biolog Phenotype Microarray PM1-2 growth on carbon sources; format: cell-based, Rothia dentocariosa
Description: as §1

P. aeruginosa = assay: as above; format: cell-based, Pseudomonas aeruginosa
Description: as §1

[1] = 35 hours, absorbance 590 nm, n = 1, cells without values AUC < 50

SMILES | AUC of growth curve, S. aureus (S. aureus) | AUC of growth curve, R. dentocariosa (R. dentocariosa; [1]) | AUC of growth curve, P. aeruginosa (P. aeruginosa) | AUC of growth curve, R. dentocariosa (R. dentocariosa) | AUC of growth curve, P. aeruginosa (P. aeruginosa; [1]) | AUC of growth curve, S. aureus (S. aureus; [1])
OC[C@H]1O[C@@H](Oc2ccc(O)cc2)[C@H](O)[C@@H](O)[C@@H]1O [Arbutin] | 282.2 | 55.2 | – | – | – | –
O=C(CO)[C@@H](O)[C@H](O)[C@@H](O)CO [L-Sorbose] | 458.7 | – | 94.3 | 52.1 | – | –
NCC(=O)N1CCC[C@H]1C(=O)O [Glycyl-L-Proline] (H-Gly-Pro-OH) | 292.4 | – | 387.4 | 72.5 | – | –
CC(=O)C(C)O (centres unmarked) [3-Hydroxy 2-Butanone] | 255.6 | – | – | – | 183.2 | –
NCCCCN [Putrescine] | 274.2 | – | – | – | 656.8 | –
CSCC[C@H](N)C(=O)O [L-Methionine] | 254.7 | – | – | – | 52.6 | –
N=C(N)NCCC[C@H](N)C(=O)O [L-Arginine] | 816.4 | – | 285.4 | – | – | –
CC(=O)N[C@@H](CCC(=O)O)C(=O)O [N-Acetyl-L-Glutamic Acid] | 184.1 | – | – | – | 272.5 | –
OC[C@H]1O[C@@H](O[C@H]2[C@H](O)[C@@H](O)[C@H](O)O[C@@H]2CO)[C@H](O)[C@@H](O)[C@@H]1O [D-Cellobiose] | – | – | – | – | 70.0 | 495.8
CC(C)C[C@H](N)C(=O)O [L-Leucine] | 231.5 | – | – | – | 125.5 | –
O=C(O)CC(=O)O [Malonic Acid] | 470.9 | – | – | – | 234.7 | –
OC[C@H]1O[C@@](CO)(O[C@H]2O[C@H](CO)[C@@H](O)[C@H](O)[C@H]2O)[C@@H](O[C@H]2O[C@H](CO)[C@@H](O)[C@H](O)[C@H]2O)[C@@H]1O [D-Melezitose] | 969.2 | 57.2 | – | – | – | –
N[C@@H](CCC(=O)O)C(=O)O [L-Glutamic Acid] | – | – | – | – | 788.3 | 644.7
OC[C@@H](O)[C@@H](O)[C@H](O)[C@H](O)CO [D-Mannitol] | 884.6 | – | – | – | 420.0 | –
O=C(O)[C@@H](O)[C@@H](O)[C@H](O)[C@@H](O)C(=O)O [D-Saccharic Acid] | 57.3 | – | – | – | 108.8 | –
O=C(O)/C=C/C(=O)O [Fumaric Acid] | 687.9 | 202.9 | – | – | 1085.5 | –
NCC(O)c1ccc(O)cc1 (racemic) [D,L-Octopamine] | 166.2 | – | – | – | 1142.2 | –
C[C@@H](N)C(=O)O [D-Alanine] | 464.9 | – | – | – | 668.1 | –
CC(N)=O [Acetamide] | 93.1 | – | – | – | 123.0 | –
C[C@H](N)C(=O)O [L-Alanine] | 564.0 | – | – | – | 775.3 | –
O=C(O)[C@H](O)[C@@H](O)[C@H](O)[C@H](O)CO [D-Gluconic Acid] | 321.0 | – | 617.8 | – | – | –
CC[C@H](C)[C@H](N)C(=O)O [L-Isoleucine] | 113.8 | – | – | – | 86.2 | –
O=C(O)c1ccc(O)cc1 [4-Hydroxy Benzoic Acid] | 140.6 | – | – | – | 909.3 | –
NCC(=O)N[C@@H](CC(=O)O)C(=O)O [Glycyl-L-Aspartic Acid] (H-Gly-Asp-OH) | 840.3 | – | 538.0 | – | – | –
OC[C@@H](O)[C@@H](O)[C@H](O)[C@@H](O)CO [D-Sorbitol] | 412.2 | – | – | – | 129.8 | –
